In US20260207670A1, “STABILIZED BLOOD DERIVED COMPOSITION USING ANTIFIBRINOLYTIC AGENTS” (priority 2022, published 2026):

Columns and labels:
[1] = system: rabbit model of osteoarthritis; experiment: Arthrosis rabbit model: radiological, macroscopic and histological scores; format: in vivo
Experimental: Rabbits showing characteristic signs of osteoarthritis (as described in Guingamp et al., 1997; confirmed with the sacrifice of two rabbits on day 15 after induction of osteoarthritis and histology), were injected with a treatment solution as described below. The rabbits were sacrificed after 75 days and radiological observation, macroscopic observation, histological observation of the cartilage, histological observation of the synovium, histological observation of the menisci were carried out.
The rabbits were treated with either: • 1. PRP alone; or • 2. […] Physiological serum (saline solution, a placebo)
The limbs were examined radiologically by two orthogonal views (anteroposterior and medio-lateral) performed using a SAMSUNG XGO® model GU60 digital radiography system (Samsung® Electronics Co, Ltd; Korè) according to radiological constants following: Voltage: 52 kV; Intensity: 100 mA; and Load: 5 mAs. The radiographs were examined blindly by two observers. The degenerative changes are similar between the two subgroups of group control (physiological serum and TXA alone). […] This is explained by the fact that tranexamic acid prevents the destruction of the fibrin network within the joint space and allows a prolonged biological action.

[2] = system: SOX9 gene; experiment: RT-PCR of SOX9 gene expression in the rabbit osteoarthritis model; format: in vivo; details: p=0.36 (TXA)
From the text: (§1) The measurement of the expression of the genes responsible for the cell differentiation is found to be important in assessing the potential regenerative of the therapy tested. The process of tissue repair involves the overexpression of the genes that are involved in the form of messenger RNA (mRNA) which will be essential for synthesis of proteins necessary for wound healing and differentiation. Therefore, quantification of the mRNA of such a gene will reflect the efficiency and the intensity of tissue repair. Based on this principle, in the rabbit osteoarthritis model of Example 3, RT-PCR was carried out in order to quantify two genes that are correlated to repair and differentiation hyaline cartilage: the COL II gene coding for the synthesis of collagen II; and the SOX9 gene coding for the differentiation mechanisms chondrocyte.

[3] = system: COL II gene; experiment: RT-PCR of COL II gene expression in the rabbit osteoarthritis model; format: in vivo; details: p=0.12 (TXA), p=3.9*10-8 (PRP alone), p=2.1*10-6 (PRP+TXA)
From the text: as §1

[4] = system: PRP fibrin clot; experiment: Speed of PRP fibrin clot disintegration (PRP gel disc diameter)

NC[C@H]1CC[C@H](C(=O)O)CC1 [TXA, tranexamic acid]
synovial score (osteoarthritic synoviopathy) compared to placebo ([1]; after 75 days, p=0.58 (TXA)): no statistically significant differences | meniscal histological score compared to placebo ([1]; after 75 days, p=0.6 (TXA), p=0.07 (PRP alone), p=2.2*10-6 (PRP+TXA)): no statistically significant differences | radiological score compared with physiological serum ([1]; rabbits sacrificed after 75 days, p=0.092 (PRP alone)): similar | expression of SOX9 gene (RQ) compared to placebo [2]: No significant difference | expression of COLII (RQ) compared to placebo [3]: No significant difference | effect on PRP gel disc breakdown, 20 mg/mL compared with 10 mg/mL ([4]; 20 mg/mL tranexamic acid vs 10 mg/mL (Example 1)): even more beneficial effect | rate of PRP gel disc breakdown ([4]; PRP gel discs with TXA 10 or 20 mg/ml vs pure PRP gel, diameter measured weekly over 21 days, physiological conditions): significantly reduced
